Earlier results on one compound are cited in patent US5049550A, “Diadenosine 5', 5'"-p^1, p^4,-tetraphosphate analogs as antithrombotic agents” (Worcester Foundation for Experimental Biology, priority 1988, dated 1991).

Structures are written as SMILES. Entries after “also recorded” stand apart in the source; their conditions may differ.

In one data set the test system is platelets. The following applies: cited from earlier work.
The conditions of data set [1]: plasma; cited from earlier work.

With `Nc1ncnc2c1ncn2[C@@H]1O[C@H](COP(=O)(O)OP(=O)(O)OP(=O)(O)OC[C@H]2O[C@@H](n3cnc4c(N)ncnc43)[C@H](O)[C@@H]2O)[C@@H](O)[C@H]1O` [AP3 A, diadenosine 5',5'"-p^1, p^3 -triphosphate], in the data set on platelets, the “effect on platelet aggregation” value is on record as “gradual aggregation of platelets; also recorded: immediately reversible upon the addition of AP4 A”. The degradation products entry in data set [1] was “hydrolysed in plasma to AMP (adenosine monophosphate) and ADP (adenosine diphosphate)”.
